According to patent US12194153B2, “Amorphous dispersion of 4-methyl-3-quinolin-3-ylethynyl-benzoic acid n′-(2-chloro-6-methyl-benzoyl) hydrazide” (SUN PHARMA ADVANCED RESEARCH COMPANY LIMITED, priority 2017, dated 2025):

Test: Oral bioavailability study in dogs (plasma levels of compound of formula I)
Assay type: in vivo
Details: dog; oral administration to dogs; plasma level of compound of formula I
Experimental: Suitable amount of amorphous dispersion of Example I and the crystalline form of compound of formula I suspended in a vehicle were administered orally to dogs.
Blood samples were withdrawn at various time intervals and the plasma levels of compound of formula I were recorded. The Cmax, AUC0 to t and AUC0-∞, in plasma are tabulated below.

- AUC(0-inf): 1190 ng·h/mL
- AUC(0-t): 1070 ng·h/mL
- Cmax: 282 ng/mL
SMILES: Cc1ccc(C(=O)NNC(=O)c2c(C)cccc2Cl)cc1C#Cc1cnc2ccccc2c1 [Compound of formula I in a vehicle, 4-Methyl-3-quinolin-3-ylethynyl-benzoic acid N′-(2-chloro-6-methyl-benzoyl)hydrazide]
